According to PMC9029360, “Cyclooxygenase-Inhibiting Platinum(IV) Prodrugs with Potent Anticancer Activity” (Pharmaceutics, 2022):
Where two headings read alike, the source gives them in different places.

Key:
[1] = tested on: HT29 colon cancer cell line; test: In vitro cytotoxicity MTT assay, HT29 colon; format: cell-based; details: n = 3
U87 glioblastoma [2] = test: In vitro cytotoxicity MTT assay, U87 glioblastoma; format: cell-based; details: 72 h drug exposure, n = 3
MCF-7 breast [3] = test: In vitro cytotoxicity MTT assay, MCF-7 breast; format: cell-based; details: n = 3
A2780 ovarian [4] = test: In vitro cytotoxicity MTT assay, A2780 ovarian; format: cell-based; details: 72 h drug exposure, n = 3
H460 lung [5] = test: In vitro cytotoxicity MTT assay, H460 lung; format: cell-based; details: n = 3
A431 skin [6] = test: In vitro cytotoxicity MTT assay, A431 skin; format: cell-based; details: n = 3
[7] = tested on: Du145 prostate cancer cell line; test: In vitro cytotoxicity MTT assay, Du145 prostate; format: cell-based; details: n = 3
BE2-C neuroblastoma [8] = test: In vitro cytotoxicity MTT assay, BE2-C neuroblastoma; format: cell-based; details: 72 h drug exposure, n = 3
SJ-G2 glioblastoma [9] = test: In vitro cytotoxicity MTT assay, SJ-G2 glioblastoma; format: cell-based; details: 72 h drug exposure, n = 3
MIA pancreas [10] = test: In vitro cytotoxicity MTT assay, MIA pancreas; format: cell-based; details: 72 h drug exposure, n = 3
[11] = tested on: MCF10A breast cell line (non-tumour derived); test: In vitro cytotoxicity MTT assay, non-tumour MCF10A breast; format: cell-based; details: MCF10A (non-cancerous), 72 h drug exposure, n = 3
[12] = tested on: cisplatin-resistant ADDP ovarian (subclone of A2780 cell line); test: In vitro cytotoxicity MTT assay, cisplatin-resistant ADDP ovarian; format: cell-based; details: ADDP (cisplatin-resistant), MTT, 72 h drug exposure, n = 3
[13] = Lipophilicity by RP-HPLC (log kw); format: physicochemical; details: capacity factor extrapolated to 100% water
Method: HPLC experiments were executed on an Agilent (Melbourne, Australia) Technologies 1260 Infinity instrument equipped with a Phenomenex (Sydney, Australia) Onyx^TM Monolithic C18 reverse phase column (100 × 4.6 mm, 130 Å). The mobile phase was comprised of 0.06% TFA in water (solvent A) and 0.06% TFA in an acetonitrile-water mixture (9:1) (solvent B). A sample injection volume of 10 µL was used at a flow rate of 1 mL/min and eluted over a gradient of 0–100% for 15 min. A PDA was used to detect the eluting peaks at 254 nm. Lipophilicity experiments to determine logkw values were undertaken following previously published methods. Rather than a gradient, different isocratic ratios ranging from 28–56% of solvent B were employed and the retention times measured for each complex. Potassium iodide was used as an external dead volume marker to determine the dead time of the column. The following equation was used to calculate the capacity factors:(1) k=tr−t0/t0 where k is the capacity factor, tr is the retention time of the analyte, and t0 is the dead time. Following this, log k was plotted against the percentage of ACN. Five different concentrations of ACN were used to produce a linear plot comprised of R^2 > 0.99. This graph produced the following equation:(2) logk=Sφ+logkw where S is the slope, φ is the % ACN, and the y-intercept, represented as logkw , is the capacity factor of the compound in 100% water.
Lipophilicity studies were carried out to determine the logkw of each complex. This was ascertained through a RP-HPLC based approach whereby complexes were eluted at several isocratic ratios. In turn, retention times were employed as in Equation (1), where the capacity factor (k) was calculated. The log k value at each ratio was then plotted against the percentage of the organic solvent used in solvent B, producing a linear equation that allowed for logkw to be extrapolated (Figure S43). The logkw value represents the retention factor in a 100% aqueous solution; thus, higher values indicate more lipophilic compounds. While this method for determining lipophilicity is slightly different from the shake-flask method, it has been used previously to compare a series of complexes that are structurally similar and is fitting for this group of complexes.

[14] = Preliminary NMR reduction study with ascorbic acid; format: physicochemical; details: D2O with 10X PBS, 37 °C
Method: Given that 1–4 were designed on the premise of functionating as prodrugs, it is anticipated that these complexes be reduced to platinum(II) and release their respective axial ligands, which will allow each component to exert its activity. To explore this possibility, preliminary NMR reduction studies were undertaken for 3. The sample was prepared in D2O with 10X PBS before ascorbic acid was added, and the sample was monitored by ^1H NMR at 37 °C. After the addition of ascorbic acid, resonances corresponding to the platinum(II) species appeared, with the intensities increasing over time, while the peaks correlating to platinum(IV) species decreased (Figure 5). Following this, ^195Pt NMR was carried out in order to confirm that the platinum(II) species remained intact.

[15] = tested on: HT29 colon cancer cell line; details: MTT, 72 h, cited from earlier work
U87 glioblastoma [16] = details: MTT, 72 h, cited from earlier work
MCF-7 breast [17] = details: MTT, 72 h, cited from earlier work
A2780 ovarian [18] = details: MTT, 72 h, cited from earlier work
H460 lung [19] = details: MTT, 72 h, cited from earlier work
A431 skin [20] = details: MTT, 72 h, cited from earlier work
[21] = tested on: Du145 prostate cancer cell line; details: MTT, 72 h, cited from earlier work
BE2-C neuroblastoma [22] = details: MTT, 72 h, cited from earlier work
SJ-G2 glioblastoma [23] = details: MTT, 72 h, cited from earlier work
MIA pancreas [24] = details: MTT, 72 h, cited from earlier work
[25] = tested on: MCF10A breast cell line (non-tumour derived); details: MTT, 72 h, cited from earlier work
[26] = tested on: cisplatin-resistant ADDP ovarian (subclone of A2780 cell line); details: MTT, 72 h, ref [2] Macias et al., Eur. J. Chem. 2015; cited from earlier work
[27] = ref [1] Deo et al., Dalton Trans. 2019
[28] = ref [2] Macias et al., Eur. J. Chem. 2015

Row | Molecule | GI50 ([1]; 72 h drug exposure) [nM] | GI50 (U87 glioblastoma [2]) [nM] | GI50 (MCF-7 breast [3]; 72 h drug exposure) [nM] | GI50 (A2780 ovarian [4]) [nM] | GI50 (H460 lung [5]; 72 h drug exposure) [nM] | GI50 (A431 skin [6]; 72 h drug exposure) [nM] | GI50 ([7]; 72 h drug exposure) [nM] | GI50 (BE2-C neuroblastoma [8]) [nM] | GI50 (SJ-G2 glioblastoma [9]) [nM] | GI50 (MIA pancreas [10]) [nM] | GI50 [11] [nM] | GI50 [12] [nM] | Log kw [13] | further results
1 | Cc1c(C)c2cccnc2c2ncccc12.N[C@H]1CCCC[C@@H]1N.O=[N+]([O-])[O-].O=[N+]([O-])[O-].[OH-].[OH-].[Pt+4] [56MESS(IV)] | 36 ± 7 | 190 ± 23 | 480 ± 140 | 56 ± 7.1 | 190 ± 150 | 120 ± 22 | 15 ± 2.6 | 240 ± 22 | 210 ± 45 | 43 ± 2.5 | 61 ± 7.3 | 170 ± 120 |  | 
2 | CC(=O)Oc1ccccc1C(=O)[O-].Cc1c(C)c2cccnc2c2ncccc12.N[C@H]1CCCC[C@@H]1N.O=[N+]([O-])[O-].O=[N+]([O-])[O-].[OH-].[Pt+4] [compound 4, [Pt(56Me2Phen)(SSDACH)(Aspirin)(OH)](NO3)2] | 7 ± 1 | 24 | 36 ± 10 | 22 | 15 ± 1 | 31 | 3 | 98 ± 21 | 63 ± 6 | 8 ± 1 | 9 ± 2 | 12 | 0.65 | 
3 | Cc1c(C)c2cccnc2c2ncccc12.N[C@H]1CCCC[C@@H]1N.[Cl-].[Cl-].[Pt+2] [56MESS(II)] | 15 ± 6.2 | 76 ± 8.7 | 33 ± 12 | 39 ± 7.7 | 28 ± 4.7 | 36 ± 11 | 10 ± 1.3 | 86 ± 3 | 150 | 22 | 25 ± 10 | 27 ± 4.1 |  | 
4 | COc1ccc2c(c1)c(CC(=O)[O][Pt-2]13([OH])([NH2+]C4CCCCC4[NH2+]1)[n+]1cccc4ccc5ccc[n+]3c5c41)c(C)n2C(=O)c1ccc(Cl)cc1.O=[N+]([O-])[O-].O=[N+]([O-])[O-] (stereo not shown) [compound 1, [Pt(Phen)(SSDACH)(Indomethacin)(OH)](NO3)2] | 83 ± 40 |  | 740 ± 230 | 390 ± 87 | 370 ± 55 | 400 ± 84 | 160 ± 54 |  | 970 ± 290 | 330 | 340 ± 100 | 350 ± 81 | 1.08 | 
5 | [Pt(Phen)(SSDACH)(Aspirin)(OH)](NO3)2 [compound 3] | 140 ± 10 | 600 ± 60 | 390 ± 80 | 260 ± 30 | 350 ± 20 | 670 ± 100 | 140 ± 10 | 620 ± 90 | 360 ± 60 | 160 ± 30 | 210 ± 29 | 200 | 0.41 | reduction by ascorbic acid (1H and 195Pt NMR) [14]: reduction to its platinum(II) congener
6 | N[C@H]1CCCC[C@@H]1N.O=[N+]([O-])[O-].O=[N+]([O-])[O-].[OH-].[OH-].[Pt+4].c1cnc2c(c1)ccc1cccnc12 [PHENSS(IV)] |  |  |  |  |  |  |  |  |  |  |  |  |  | GI50 [15, 27]: 710 ± 300 nM; GI50 (U87 glioblastoma [16]; [27]): 4900 ± 610 nM; GI50 (MCF-7 breast [17]; [27]): 16000 nM; GI50 (A2780 ovarian [18]; [27]): 800 ± 84 nM; GI50 (H460 lung [19]; [27]): 1700 ± 200 nM; GI50 (A431 skin [20]; [27]): 4300 ± 530 nM; GI50 [21, 27]: 310 ± 92 nM; GI50 (BE2-C neuroblastoma [22]; [27]): 3000 ± 530 nM; GI50 (SJ-G2 glioblastoma [23]; [27]): 1700 nM; GI50 (MIA pancreas [24]; [27]): 3400 nM; GI50 [25, 27]: 1700 nM
7 | COc1ccc2c(c1)c(CC(=O)[O][Pt-2]13([OH])([NH2+]C4CCCCC4[NH2+]1)[n+]1cccc4c(C)c(C)c5ccc[n+]3c5c41)c(C)n2C(=O)c1ccc(Cl)cc1.O=[N+]([O-])[O-].O=[N+]([O-])[O-] (stereo not shown) [compound 2, [Pt(56Me2Phen)(SSDACH)(Indomethacin)(OH)](NO3)2] | 13 ± 3.6 | 47 ± 4.9 | 37 ± 2.3 | 34 ± 8.6 | 22 ± 4.2 | 40 ± 14 | 7.5 ± 3.6 | 130 ± 41 | 170 ± 19 | 21 ± 2 | 23 ± 8.2 | 24 ± 6.1 | 1.28 | 
8 | O=C1[O][Pt]2([NH][C@@H]3CCCC[C@H]3[NH]2)[O]C1=O [Oxaliplatin, oxaliplatin] |  |  |  |  |  |  |  |  |  |  |  |  |  | GI50 [15, 28]: 900 ± 200 nM; GI50 (U87 glioblastoma [16]; [28]): 1800 ± 200 nM; GI50 (MCF-7 breast [17]; [28]): 500 ± 100 nM; GI50 (A2780 ovarian [18]; [28]): 160 nM; GI50 (H460 lung [19]; [28]): 1600 ± 100 nM; GI50 (A431 skin [20]; [28]): 4100 ± 500 nM; GI50 [21, 28]: 2900 ± 400 nM; GI50 (BE2-C neuroblastoma [22]; [28]): 900 ± 200 nM; GI50 (SJ-G2 glioblastoma [23]; [28]): 3000 ± 1200 nM; GI50 (MIA pancreas [24]; [28]): 900 nM; GI50 [26]: 822 ± 130 nM
9 | N[C@H]1CCCC[C@@H]1N.[Cl-].[Cl-].[Pt+2].c1cnc2c(c1)ccc1cccnc12 [PHENSS(II)] | 87 ± 27 | 1200 ± 340 | 250 ± 41 | 290 ± 37 | 300 ± 32 | 340 ± 100 | 110 ± 27 | 390 ± 60 | 440 ± 55 | 240 ± 22 | 240 ± 60 | 230 ± 49 |  | 
10 | N.N.O=C([O-])C1(C(=O)[O-])CCC1.[Pt+2] [Carboplatin, carboplatin] |  |  |  |  |  |  |  |  |  |  |  |  |  | GI50 [15, 28]: > 50000 nM; GI50 (U87 glioblastoma [16]; [28]): > 50000 nM; GI50 (MCF-7 breast [17]; [28]): > 50000 nM; GI50 (A2780 ovarian [18]; [28]): 9200 ± 2900 nM; GI50 (H460 lung [19]; [28]): 14000 ± 1000 nM; GI50 (A431 skin [20]; [28]): 24300 nM; GI50 [21, 28]: 14700 nM; GI50 (BE2-C neuroblastoma [22]; [28]): 18700 nM; GI50 (SJ-G2 glioblastoma [23]; [28]): 5700 nM; GI50 (MIA pancreas [24]; [28]): > 50000 nM; GI50 [25, 28]: > 50000 nM; GI50 [26]: > 50000 nM
11 | COc1ccc2c(c1)c(CC(=O)O)c(C)n2C(=O)c1ccc(Cl)cc1 [Indomethacin, indomethacin] |  | > 50000 |  |  |  |  |  |  | > 50000 | > 50000 |  |  |  | GI50 ([1]; Homo sapiens, HT-29, 72 h drug exposure): > 50000 nM; GI50 (MCF-7 breast [3]; Homo sapiens, MCF7, 72 h drug exposure): > 50000 nM; GI50 (A2780 ovarian [4]; Homo sapiens): 5700 ± 800 nM; GI50 (H460 lung [5]; Homo sapiens, NCI-H460, 72 h drug exposure): > 50000 nM; GI50 (A431 skin [6]; Homo sapiens, A-431, 72 h drug exposure): > 50000 nM; GI50 ([7]; Homo sapiens, DU-145, 72 h drug exposure): > 50000 nM; GI50 (BE2-C neuroblastoma [8]; Homo sapiens, BE(2)-C): > 50000 nM; GI50 ([11]; Homo sapiens, MCF-10A): > 50000 nM; GI50 ([12]; Homo sapiens, A2780): > 50000 nM
